Experimental data as given in the supplement of paper PMC4862054.

Experiments:
Settings in all cases: incubation time: 72 h
MDA-MB-436 [1] = assay: normalised response (% of control), CellTiter-Glo; higher = more viable cells (100 = DMSO, 0 = benzethonium chloride kill control)
How it was run: (§1)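 Breast cancer cell lines (20 µl suspension) were seeded into 384-well plates holding compound at 5 concentrations in 10-fold steps over a compound-specific 10,000-fold range, then incubated 72 h. CellTox Green fluorescence (485/520 nm) was read first, then CellTiter-Glo luminescence after 10 min at room temperature. Each plate was normalised to 0.1 % DMSO (100) and a positive kill control (0). Each value is the normalised signal at a single concentration of the series.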

DU-4475 [2] = assay: as above
How it was run: as §1

HDQ-P1 [3] = assay: as above
How it was run: as §1

SK-BR-3 = assay: as above
How it was run: as §1

MDA-MB-468 [4] = assay: as above
How it was run: as §1

MDA-MB-453 [5] = assay: as above
How it was run: as §1

CAL-120 [6] = assay: as above
How it was run: as §1

CAL-148 [7] = assay: as above
How it was run: as §1

CAL-51 [8] = assay: as above
How it was run: as §1

MDA-MB-231 [9] = assay: as above
How it was run: as §1

Hs578T [10] = assay: as above
How it was run: as §1

MCF-10A [11] = assay: as above
How it was run: as §1

BT-474 [12] = assay: as above
How it was run: as §1

BT-549 [13] = assay: as above
How it was run: as §1

MFM-223 [14] = assay: as above
How it was run: as §1

HCC1937 [15] = assay: as above
How it was run: as §1

HCC1599 [16] = assay: as above
How it was run: as §1

CAL-85-1 [17] = assay: as above
How it was run: as §1

HCC1143 [18] = assay: as above
How it was run: as §1

MDA-MB-436 [19] = assay: normalised response (% of control), CellTox Green; higher = less cell death (100 = DMSO, 0 = benzethonium chloride kill control)
How it was run: as §1

DU-4475 [20] = assay: as above
How it was run: as §1

HDQ-P1 [21] = assay: as above
How it was run: as §1

MDA-MB-468 [22] = assay: as above
How it was run: as §1

MDA-MB-453 [23] = assay: as above
How it was run: as §1

CAL-120 [24] = assay: as above
How it was run: as §1

CAL-148 [25] = assay: as above
How it was run: as §1

CAL-51 [26] = assay: as above
How it was run: as §1

MDA-MB-231 [27] = assay: as above
How it was run: as §1

Hs578T [28] = assay: as above
How it was run: as §1

MCF-10A [29] = assay: as above
How it was run: as §1

BT-474 [30] = assay: as above
How it was run: as §1

BT-549 [31] = assay: as above
How it was run: as §1

MFM-223 [32] = assay: as above
How it was run: as §1

HCC1937 [33] = assay: as above
How it was run: as §1

HCC1599 [34] = assay: as above
How it was run: as §1

CAL-85-1 [35] = assay: as above
How it was run: as §1

HCC1143 [36] = assay: as above
How it was run: as §1

SMILES	normalised response (MDA-MB-436 [1])	normalised response (DU-4475 [2])	normalised response (HDQ-P1 [3])	normalised response (SK-BR-3)	normalised response (MDA-MB-468 [4])	normalised response (MDA-MB-453 [5])	normalised response (CAL-120 [6])	normalised response (CAL-148 [7])	normalised response (CAL-51 [8])	normalised response (MDA-MB-231 [9])	normalised response (Hs578T [10])	normalised response (MCF-10A [11])	normalised response (BT-474 [12])	normalised response (BT-549 [13])	normalised response (MFM-223 [14])	normalised response (HCC1937 [15])	normalised response (HCC1599 [16])	normalised response (CAL-85-1 [17])	normalised response (HCC1143 [18])	normalised response (MDA-MB-436 [19])	normalised response (DU-4475 [20])	normalised response (HDQ-P1 [21])	normalised response (MDA-MB-468 [22])	normalised response (MDA-MB-453 [23])	normalised response (CAL-120 [24])	normalised response (CAL-148 [25])	normalised response (CAL-51 [26])	normalised response (MDA-MB-231 [27])	normalised response (Hs578T [28])	normalised response (MCF-10A [29])	normalised response (BT-474 [30])	normalised response (BT-549 [31])	normalised response (MFM-223 [32])	normalised response (HCC1937 [33])	normalised response (HCC1599 [34])	normalised response (CAL-85-1 [35])	normalised response (HCC1143 [36])
CNC(=O)c1ccc(N2C(=S)N(c3ccc(C#N)c(C(F)(F)F)c3)C(=O)C23CCC3)cc1F [RD162] (100 nM)	101%	102%	99.7%	103%	108%	108%	103%	101%	97.3%	99.7%	102%	116%	94.2%	97.8%	103%	91.3%	111%	96.4%	101%	83.4%	103%	96.8%	87.9%	107%	104%	87%	105%	113%	88%	110%	104%	106%	103%	107%	102%	101%	84.3%
CNC(=O)c1cc(Oc2ccc(NC(=O)Nc3ccc(Cl)c(C(F)(F)F)c3)c(F)c2)ccn1 [Regorafenib] (100 nM)	106%	100%	98.8%	105%	94.3%	105%	98.1%	112%	97.5%	101%	108%	105%	99%	103%	102%	100%	91.2%	99.8%	100%	90.9%	103%	101%	135%	103%	99.8%	101%	105%	74.6%	99.4%	98.1%	98.9%	109%	88.1%	99.6%	108%	108%	87.8%
c1ccc2c(CCNc3ccc(Nc4ccncc4)cc3)c[nH]c2c1 [Serdemetan] (100 nM)	92%	101%	105%	98.3%	95.1%	106%	98.2%	91.8%	84.5%	98%	93.2%	95.2%	90.6%	101%	99.9%	92%	122%	103%	99.2%	88.8%	100%	51.9%	83.8%	103%	96.9%	96.1%	91.4%	93.5%	99.5%	88%	100%	103%	93.3%	98.8%	93.7%	103%	104%
